# Laboratory results as given in US20230058171A1, “NEW ORAL PHARMACEUTICAL COMPOSITION FOR CANCER THERAPY” (BOEHRINGER INGELHEIM INTERNATIONAL GMBH, priority 2021, published 2023).
# Test: Human therapeutic dose prediction
# Description: Preliminary pharmacokinetic (PK) data were used as supportive information for the dose decision. The human therapeutic dose was predicted based on a minimum effective AUC0-168 of 30,700 nM*h (QW), which was determined in a mouse SJSA-1 xenograft experiment. For this, the difference in plasma protein binding between human and mouse was taken into account, which translated to an effective AUC0-168 of 11,350 nM*h for QW dosing in humans. The human therapeutic dose was predicted to be 64 mg (free acid) with QW dosing.
smiles,measurement,setting,value
"Cc1c(C(=O)O)ccc2c3n(nc12)[C@@H]1[C@H](C3)N(CC2CC2)[C@@]2(C(=O)Nc3cc(Cl)ccc32)[C@H]1c1cccc(Cl)c1F [MDM2-antagonist of formula I, (2′S,3′S,3a'S,10a'S)-6-chloro-3′-(3-chloro-2-fluorophenyl)-1′-(cyclopropylmethyl)-6′-methyl-2-oxo-1,2,3′,3a′,10′,10a′-hexahydro-1′H-spiro[indole-3,2′-pyrrolo[2′,3′:4,5]pyrrolo[1,2-b]indazole]-7′-carboxylic acid]",Cmax,"at predicted human therapeutic dose, QW",680 nM
same,predicted human therapeutic dose,"free acid, QW dosing",64 mg
same,AUC(0-t),"oral, 64 mg, QW dosing in humans, corrected for plasma protein binding human vs mouse, read-out: effective AUC0-168",11.3 µM·h
